As usually defined, the IC50 is the point on the concentration scale where inhibition reaches its midpoint. The low end stands for inhibition by little substance, the high end for a need for much substance.

The structures appear in SMILES notation.

Experiment [1] relates to KRAS21R G4. As to the kind of experiment: FRET melting assay, KRAS21R G4. The experiment is classed as binding, human. The conditions noted are these: G4 0.2 μM, ligand 1 μM, K-cacodylate buffer pH 7.4, 60 mM K+. As for the experimental part:
Fluorescence resonance energy transfer (FRET) studies with DNA sequences labelled at the 5′ and 3′ ends, were conducted to evaluate the G4 DNA stabilizing properties of IQcs (at 0.1 to 5 μM ligand concentrations). The G4-forming sequence KRAS21R[11], together with T-loop, a 26-mer hairpin double-stranded DNA (ds-DNA) sequence were used in the first screening assay. Reproducible IQc dose-dependent melting curves (Sup. Inf.; Figure S3) and stabilization temperature (ΔTm) values were obtained (Figure 2 and Table S5).
Figure 2 FRET stabilization temperatures (ΔTm) of KRAS21R G4 and hairpin ds-DNA (T-loop) at 0.2 μM, in K-cacodylate buffer (pH = 7.4, 60 mM K^+), stabilized by IQc derivatives and TMPyP4 at 1 μM. ^a) SD ≤ 0.2°C. TEXT PRINTED IN THE PICTURE: TMPyP4: ΔTm / °C ^a) (T-Loop): 16.0; ΔTm / °C ^a) (KRAS21R): 25.1 | 3e: ΔTm / °C ^a) (T-Loop): 6.5; ΔTm / °C ^a) (KRAS21R): 22.0 | 3d: ΔTm / °C ^a) (T-Loop): 5.6; ΔTm / °C ^a) (KRAS21R): 19.9 | 2d: ΔTm / °C ^a) (T-Loop): 6.1; ΔTm / °C ^a) (KRAS21R): 15.1 | 2a: ΔTm / °C ^a) (T-Loop): 1.5; ΔTm / °C ^a) (KRAS21R): 4.4 […]
Oligonucleotide sequences were purchased from Eurofins MWG Synthesis GmbH, Germany or STAB VIDA Genomics Lab, Caparica, Lisbon, Portugal. The labelled oligonucleotides used in the FRET assays had attached the donor fluorophore FAM (6-carboxyfluorescein) and the acceptor fluorophore TAMRA (6-carboxytetramethylrhodamine): KRAS21R: 5′-FAM-[…]-TAMRA-3′; KRAS32R: 5′-FAM-[…]-TAMRA-3′; UTR-1: 5′-FAM-GCGGCGGCGGAGG-TAMRA-3′; UTR-2: 5′-FAM-[…]-TAMRA-3; T-Loop:5′-FAM-[…]-TAMRA-3′; F21T: 5′-FAM-[…]-TAMRA-3′. Non-labelled oligonucleotides were used in FRET competition assays and in the spectroscopic studies: ds26: - d(5′-CAATCGGATCGAATT CGATCCGATTG-3′); KRAS21R: 5′-[…]-3′; HT21: 5′-[…]-3′. Each oligonucleotide was initially diluted to a storage solution at 100 μM in nuclease-free water (not DEPC-treated), purchased from Ambion Applied Biosystems UK.
The ability of indolo[3,2-c]quinolines to stabilize DNA sequences was investigated using a Fluorescence Resonance Energy Transfer (FRET) assay as reported elsewhere.
Figure S3 (cont.)| Concentration-dependent (0.1, 0.5, 1, 2, 3, 4 and 5 µM) FRET melting profiles of G4 structures and T-loop DNA with indolo[3,2-c]quinoline derivatives 1a, 2a-g and 3d-j in K-cacodylate buffer (pH 7.4, 60 mM K+). […]
Table S5 | FRET stabilization temperatures (ΔTm) of G4s sequences and ds-DNA (0.2 µM) stabilized by […]

Experiment [2] has as its system MCF7 (breast). The experiment in a line: SRB short-term cytotoxicity assay, MCF7. The note with it: Homo sapiens, 96 h. It counts as cell-based. On the procedure:
Short-term anti-proliferative assays were carried out by two different assays using a panel of human cancer and non-malignant human cell lines. […] The transformed human embryonic kidney cell line HEK293T (wt KRAS) was sensitive to all tested drugs, including TMPyP4, a cationic porphyrin established as a G4 ligand, as well as the anticancer drug 5-fluorouracil (5-FU).
Human cell lines, breast carcinoma (MCF7), lung carcinoma (A549), pancreatic cancer (MIA PaCa2, Panc-1), immortalised telomerase-negative human lung fibroblast (ALT) and normal human lung fibroblast (WI-38), were all purchased from American Type Cell Culture (ATCC). Cell lines were maintained in appropriate medium supplemented with 10% fetal bovine serum (Invitrogen, UK), 2 mM L-glutamine (Invitrogen, Netherlands), and other components as specified by the suppliers. All cell lines were maintained at 37°C, 5% CO2, and routinely passaged. Short-term growth inhibition was measured using the SRB assay as described previously[43] (additional details described in Supplementary Information). […]
Sulforhodamine B (SRB) short-term cytotoxicity assay
Cells were seeded at appropriate densities into the wells of 96 well plates in their corresponding medium and incubated overnight to allow the cells to attach. Subsequently cells were exposed to various concentrations of freshly made solutions of drugs and incubated for 96 h. The cells were subsequently fixed with ice-cold trichloacetic acid (TCA) (10%, w/v) for 30 min and stained with 0.4% SRB dissolved in 1% acetic acid for 15 min.
All incubations were carried out at room temperature except for TCA fixation, which was at 4 °C. […]
After electrophoretic transfer onto nitrocellulose membranes, immunoblots were blocked with 5% milk solution, and next incubated overnight at 4 °C with primary mouse monoclonal antibody reactive to KRAS/p53 (#sc-30/sc-126; Santa Cruz Biotechnology Inc., Santa Cruz, CA, USA). […] Steady-state protein levels were expressed as mean ±SEM from at least three independent experiments.

Consider `CCN(CC)CCCNc1ccc2c(c1)c1[nH]c3ccccc3c1c[n+]2C` [2d], for which, in experiment [1], the “FRET stabilization temperature ΔTm (KRAS21R)” value was 15.1 °C. For the same compound, the midpoint of inhibition in experiment [2], the IC50, lay at 2400 nM.
As to `CCN(CC)CCCNc1ccc2[nH]c3c(c[n+](C)c4ccc(NCCCN(CC)CC)cc34)c2c1.[Cl-]` [3d], in experiment [1], the “FRET stabilization temperature ΔTm (KRAS21R)” value amounted to 19.9 °C.
As to `C[n+]1ccc(-c2c3nc(c(-c4cc[n+](C)cc4)c4ccc([nH]4)c(-c4cc[n+](C)cc4)c4ccc([nH]4)c(-c4cc[n+](C)cc4)c4nc2C=C4)C=C3)cc1` [TMPyP4, reference compound], the “FRET stabilization temperature ΔTm (KRAS21R)” value in experiment [1] turned out to be 25.1 °C.
With `Cn1cc2c3ccccc3nc-2c2cc(Br)ccc21` [2a, 2-bromo-5-methyl-indolo[3,2-c]quinoline], the IC50 in experiment [2] was found to be 2880 nM.
Take `CCN(CC)CCCNc1ccc2c(c1)[nH]c1c2c[n+](C)c2ccc(NCCCN(CC)CC)cc12.[Cl-]` [3e]: the “FRET stabilization temperature ΔTm (KRAS21R)” value in experiment [1] was found to be 22.0 °C. Also, in experiment [2], the midpoint of inhibition, the IC50, lay at 11400 nM.
